Test results reported in US20220152224A1, “METHODS AND MATERIALS FOR TREATING CANCER” (priority 2019, published 2022).

Tested on: GSK3β
Experiment: Inhibition of GSK3β during Neurog2-induced neuronal conversion of U251 cells
Format: cell-based, human

SMILES	neuronal conversion efficiency of Neurog2-infected U251 cells (CHIR99021 5 μM for 20 days)	neuronal conversion efficiency of Neurog2-infected U251 cells (TWS119 10 μM for 20 days)
Cc1c[nH]c(-c2cnc(NCCNc3ccc(C#N)cn3)nc2-c2ccc(Cl)cc2Cl)n1 [CHIR99021]	decreased neuronal conversion efficiency	
Nc1cccc(-c2cc3c(Oc4cccc(O)c4)ncnc3[nH]2)c1 [TWS119]		decreased neuronal conversion efficiency
